This note sets out measurements from publication PMC10986499, “Unravelling HetC as a peptidase-based ABC exporter driving functional cell differentiation in the cyanobacterium Nostoc PCC 7120” (Microbiology Spectrum, 2024).

The target of test [1] is T1, HetC (Nostoc sp. PCC 7120 = FACHB-418, UniProt A0ACD7RTN5).
T1 construct: HetCNTD, N-terminal domain (first 480 residues; includes C39 peptidase domain), hexa-his tagged
T1 sequence (A0ACD7RTN5 1-480): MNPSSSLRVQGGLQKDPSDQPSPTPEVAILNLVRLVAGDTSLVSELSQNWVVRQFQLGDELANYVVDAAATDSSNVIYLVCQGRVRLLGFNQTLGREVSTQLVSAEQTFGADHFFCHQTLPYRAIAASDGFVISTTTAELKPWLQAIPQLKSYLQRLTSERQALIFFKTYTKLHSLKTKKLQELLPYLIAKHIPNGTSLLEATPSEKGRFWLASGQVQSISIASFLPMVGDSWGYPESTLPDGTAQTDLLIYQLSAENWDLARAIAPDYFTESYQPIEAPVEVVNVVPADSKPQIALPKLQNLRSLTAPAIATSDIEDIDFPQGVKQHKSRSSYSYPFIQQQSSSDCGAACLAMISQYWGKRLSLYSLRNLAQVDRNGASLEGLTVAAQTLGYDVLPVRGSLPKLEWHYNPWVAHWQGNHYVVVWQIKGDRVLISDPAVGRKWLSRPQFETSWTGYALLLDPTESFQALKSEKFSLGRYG
Nature of the test: chromogenic peptidase assay at […] nm with purified HetCNTD, […] substrate. It is filed as biochemical.

The target in test [2] is T2, HetC (Nostoc sp. PCC 7120 = FACHB-418, UniProt A0ACD7RTN5).
T2 construct: HetCNTD, N-terminal domain (first 480 residues)
Description: ITC (triplicate), supported by nanoDSF shift (ΔTm […] °C at […]). The class given is binding. On the technique in general: In DSF a fluorescence change marks the thermal transition of the protein.

In the case of `N=C(N)NCCC[C@H](N)C(=O)Nc1ccc([N+](=O)[O-])cc1` [L-Arginine p-nitroanilide], the “chromogenic peptidase assay at 405 nm with purified HetCNTD, 1 mM substrate” value at HetC [1] is 0.22 ± 0.08 pmol/min/µg of protein.
Broadly, the Kd is a measure of binding affinity in units of concentration. Take `Nc1nc2c(ncn2[C@@H]2O[C@H](COP(=O)(O)OP(=O)(O)O)[C@@H](OP(=O)(O)OP(=O)(O)O)[C@H]2O)c(=O)[nH]1` [ppGpp]: the Kd on HetC [2] was around 59 µM.
